Laboratory results published in patent US20110038856A1, “METHODS OF TREATING NEOPLASTIC, AUTOIMMUNE AND INFLAMMATORY DISEASES” (Seattle Genetics, Inc., priority 2006, published 2011).

What was measured:
HEL 92.1.7 cells = assay: Complement-dependent cytotoxicity (CDC) on MDR+ CD33-positive AML cell line; type: cell-based, human; conditions: HEL 92.1.7 cells; FIG. 4
Method: The purpose of this study was to determine whether the cytotoxic effects of an anti-CD33 antibody (HuM195) on AML cells could be enhanced by combination treatment with chemotherapeutic drugs. An MDR^+, CD33-positive AML cell line (HEL 92.1.7) was either untreated or preincubated with the indicated concentrations of thalidomide or 5-azacytidine for two hours prior to exposure to the anti-CD33 Ab. Cytotoxic activity was measured using a complement-dependent cytotoxicity (CDC) activity.

[1] = tested on: primary human macrophages; assay: Cytokine/chemokine production by primary human macrophages; type: cell-based; conditions: for production of IL-6, TNF-α, RANTES, and MCP-1: pre-incubation 3 hours with antibody, 24 hours
Method: Primary human macrophages were generated from long-term cultures of freshly isolated human peripheral blood mononuclear cells (PBMCs; AllCells, Emeryville, Calif. or LifeBlood, Memphis, Tenn.). PBMCs were cultured in tissue culture flasks in RPMI 1640 medium containing glutamine (Invitrogen, Grand Island, N.Y.), 10% heat-inactivated FBS, and antibiotics for 3 to 4 hours. Non-adherent cells were removed by washing with PBS and the adherent cells were cultured in OptiMem-1 medium (Invitrogen) containing 1% heat-inactivated FBS for 1 to 2 hours. The cells were washed with PBS and cultured for 10 to 14 days in X-VIVO-15 medium (Cambrex Bio Science, Walkersville, Md.) containing 500 U/ml GM-CSF (Peprotech, Rocky Hill, N.J.). […]

human CD14+ monocytes = assay: Cytokine/chemokine production by primary human CD14+ monocytes; type: cell-based
KG-1 AML cell line = assay: Cytokine production by KG-1 AML cell line; type: cell-based; conditions: 2.5 μg/ml pre-treatment, then 1 ng/ml TNF-alpha; media harvested 18 h later; versus control antibody
Method: Media was harvested 18 h later for cytokine analyses.

HL-60 cells = assay: Mouse AML model, HL-60 cells injected intravenously; type: in vivo, mice; conditions: q4d×5, ip, FIG. 24
Method: Mice were implanted with an AML cell line, HL-60, as follows: 5 million HL-60 cells were injected intravenously. The mice were treated with lintuzumab (10 mg/kg, q4d×4, ip), cytarabine (1 mg/kg, 5 mg/kg or 25 mg/kg, q1d×10, or 50 mg/kg or 100 mg/kg, q2d×5, ip) or lintuzumab with cytarabine (dosed as described previously). Treatment began on day one.
To confirm the data of the in vitro study, mice were implanted with an AML cell line, HL-60, as follows: 5 million HL-60 cells were injected intravenously. […] Treatment began on day one.

[2] = tested on: primary human macrophages
Method: (§1) Macrophages were harvested, counted, and cultured in 96-well plates at 35,000 cells per well. G-CSF-mobilized CD14^+ monocytes (Cambrex) were cultured in 96-well plates at 100,000 cells per well (adherent cells) in sterile polypropylene dishes (non-adherent cells).

[3] = tested on: primary human CD14+ monocytes
Method: as §1

[4] = tested on: patients with relapsed and refractory acute myeloid leukemia (AML); conditions: low dose with infrequent administration; cited from earlier work
[5] = tested on: patients with advanced myeloid malignancies (AML, MDS, CMML); assay: Phase 1 single-arm dose escalation trial in patients with advanced myeloid malignancies
Method: Entry criteria included CD33 expression on >50% of the marrow blasts to ensure that adequate target antigen was present. […] Clinical response was assessed by bone marrow morphology and hematologic improvement. […] Among AML patients, 6 had antecedent hematologic disorder. Dosing cohorts included 1.5 (6), 2.5 (4), 4 (4), and 8 mg/kg (17).

CD33 [6] = target: T1, CD33 (Homo sapiens, UniProt P20138); assay: CD33 tyrosine phosphorylation in CD33-positive AML lines (CD33 immunoprecipitation, anti-phosphotyrosine Western blot); type: cell-based; parameters: endogenous in cells; host or cells: HL-60 (ATCC); primary human CD14+ monocytes (Cambrex); macrophages derived from human PBMCs
T1 sequence (P20138 18-364): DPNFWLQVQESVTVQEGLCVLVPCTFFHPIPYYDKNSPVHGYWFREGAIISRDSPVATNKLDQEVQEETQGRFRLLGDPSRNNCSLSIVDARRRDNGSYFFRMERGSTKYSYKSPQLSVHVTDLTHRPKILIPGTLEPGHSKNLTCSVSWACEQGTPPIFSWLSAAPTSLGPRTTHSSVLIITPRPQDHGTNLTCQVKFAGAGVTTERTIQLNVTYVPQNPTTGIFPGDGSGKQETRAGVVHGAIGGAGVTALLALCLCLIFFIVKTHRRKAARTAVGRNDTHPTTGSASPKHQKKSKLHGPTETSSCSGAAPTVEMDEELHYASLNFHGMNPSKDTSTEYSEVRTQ
Method: CD33-positive cell lines were treated with anti-CD33 antibodies (lintuzumab and certain commercially available antibodies). Cell extracts were prepared and CD33 was immunoprecipitated using an anti-CD33 antibody (MY9 clone; Beckman Coulter, Calif.). Western blotting was performed with an anti-phosphotyrosine antibody (4G10; Upstate Biotechnologies, Inc., Lake Placid, N.Y.). […] Two forms of CD33 were detected (due to either splicing of CD33 mRNA or post-translational modification of CD33).

CD33 [7] = target: T1, CD33; assay: SGN-33 signaling in HL-60 cells, primary human monocytes and macrophages (CD33 immunoprecipitation, Western blot); type: cell-based; parameters: endogenous in cells; host or cells: HL-60 (ATCC); primary human CD14+ monocytes (Cambrex); macrophages derived from human PBMCs
Method: Deglycosylation was confirmed by CE-SDS. […] Cell lysates were prepared and CD33 immunoprecipitated using an anti-CD33 rabbit polyclonal antibody (Santa Cruz Biotechnology, Santa Cruz, Calif.) prior to SDS PAGE gel electrophoresis. Western blot analyses of these samples were performed using the 4G10 phosphotyrosine antibody (Upstate Biotechnology, Temucula, Calif.), anti-CD33 antibody (NovoCastra, Norwell, Mass.), and anti-SHP-1 antibody (Calbiochem, San Diego, Calif.). Control lysate for SHP-1 was prepared from a B cell lymphoma cell line.

[8] = HL-60 AML cells and primary human monocytes or macrophages, soluble SGN-33, 30 minutes, FIG. 15

For “SGN-33: anti-CD33 antibody, a humanized version of mouse monoclonal antibody M195”, the “lysis of AML cells (CDC activity)” value (HEL 92.1.7 cells) was “increased lysis of AML cell lines in a dose-dependent manner”, the “levels of IL-6, TNF-α, MCP-1, and RANTES” value ([1]; macrophages treated 1 h prior to IFN-γ, LPS, or TGF-β, supernatants 18 h later, FIG. 18) was “significantly reduced” and the “production of IL-6, TNF-α, RANTES, and MCP-1” value ([1]; in response to IFN-γ, FIG. 6) was “reduced production”. The “production of IL-6, TNF-α, RANTES, and MCP-1” value ([1]; in response to conditioned media from RPMI-8226 and Karpus-620 cells, FIG. 7) was “reduced production”, the “levels of TNF-α” value ([1]; primary human macrophages, various doses of SGN-33, 1 hr prior to IFN-γ, 18 h, p<0.05, FIG. 20) was “significantly reduced levels of TNF-α in a dose-dependent manner” and the “production of IL-6, TNF-α, MCP-1, IL-8, and RANTES” value (human CD14+ monocytes; CD14+ primary human monocytes activated with IFN-γ, previous studies (Example 3)) was “significantly reduced”. For the same substance, the “level of RANTES” value (human CD14+ monocytes; adherent CD14+ monocytes, IFN-γ stimulated, FIG. 10) was “reduced”, the “level of RANTES” value (human CD14+ monocytes; adherent CD14+ monocytes, RPMI-8228 conditioned media stimulated, FIG. 11) was “reduced” and the “level of TNF-α” value (human CD14+ monocytes; adherent CD14+ monocytes, basal level, FIG. 11) was “reduced the basal level”. The “levels of IL-6, MCP-1, TNF-α, and IL-8” value (human CD14+ monocytes; adherent CD14+ monocytes, basal levels and IFN-γ stimulated levels, 48 hours, FIG. 10) was “reduced”, the “levels of IL-6, MCP-1, and IL-8” value (human CD14+ monocytes; adherent CD14+ monocytes, basal levels and RPMI-8228 conditioned media stimulated levels, FIG. 11) was “reduced” and the “levels of IL-6, IL-8, TNF-α and MCP-1” value (human CD14+ monocytes; non-adherent CD14+ monocytes upon exposure to SGN-33, FIG. 12) was “small increases”. The “production of cytokines, chemokines and growth factors” value (human CD14+ monocytes; non-adherent CD14+ monocytes, IFN-γ, FIG. 12) was “not inhibited”, the “levels of IL-6, MCP-1, IL8 and RANTES” value (human CD14+ monocytes; non-adherent CD14+ monocytes, stimulated by RPMI-8226 conditioned media, FIG. 12) was “reduced” and the “IFN-γ-stimulated production of IL-10, IL-10, IL-12, and MIP-1α” value (human CD14+ monocytes; primary human monocytes treated 1 hr prior to IFN-γ, supernatants 18 h later, p<0.001, FIG. 19) was “significantly reduced”. For the same substance, the “levels of TNF-α” value (human CD14+ monocytes; primary human monocytes, various doses of SGN-33, 1 hr prior to IFN-γ, 18 h, p<0.05, FIG. 20) was “significantly reduced levels of TNF-α in a dose-dependent manner”, the “production of IL-8, IP-10, M11b, RANTES, and MCP-1” value (KG-1 AML cell line) was “reduced the production” and the survival rate (HL-60 cells; SGN-33 30 mg/kg) was roughly 85%. For the same substance, the survival rate (HL-60 cells; SGN-33 3 or 10 mg/kg) was roughly 50%, the cell viability [2] was “without interfering with cell viability” and the cell viability [3] was “not due to an adverse effect”. The blast cells [4] was “induced significant reductions in blast cells”, the tolerability ([5]; 1.5 mg/kg/wk, N=6, previously untreated patients, average age 76 years) was “well tolerated” and the “patients achieving CR” value ([5]; among 18 patients with AML) was 4. For the same substance, the “patients achieving CR with incomplete platelet recovery” value ([5]; among 18 patients with AML) was 1, the antitumor activity ([5]; an elderly patient with previously untreated AML) was “antitumor activity was observed” and the maximal tolerated dose ([5]; at 1.5 mg/kg/wk, N=6) was “without any evidence that a maximal tolerated dose has been reached”. For the same substance, the “exposure (AUC)” value ([5]; doses 1.5 to 8 mg/kg) was “increased relative to dose”, the tolerability ([5]; doses up to 8 mg/kg/wk) was “well tolerated” and the anti-SGN-33 immune responses ([5]; first 15 patients tested) was “No anti-SGN-33 immune responses were detected”. For the same substance, the “Grade 4 adverse events considered related to antibody” value ([5]; human, in vivo) was “none”, the “infusion reactions during subsequent doses” value ([5]; human, in vivo) was “uncommon” and the accumulation ([5]; repeat dosing) was “accumulation was documented with repeat dosing”. The “Grade 3 adverse events considered related to antibody” value ([5]; tumor lysis syndrome at 4 mg/kg, febrile neutropenia at 8 mg/kg) was 2, the “chills associated with the first infusion (most common drug-related adverse event)” value ([5]; weekly iv doses of 1.5 to 8 mg/kg) was 11/31 and the dose limiting toxicity ([5]; weekly iv doses of 1.5 to 8 mg/kg, 31 patients) was “has not been observed”. The “CD33 tyrosine phosphorylation, soluble versus cross-linked antibody” value (CD33 [6]; HL-60 and U937 cells, FIG. 2) was “more effective than cross-linked antibody”, the CD33 tyrosine phosphorylation (CD33 [6]; HL-60 and U937 cells, soluble or cross-linked antibody, compared with control human IgG1, FIG. 2) was “stimulated CD33 tyrosine phosphorylation” and the CD33 tyrosine phosphorylation (CD33 [6]; HL-60 cells, both soluble and cross-linked antibody, FIG. 1) was “stimulated CD33 tyrosine phosphorylation”. For the same substance, the “phosphorylation of CD33” value (CD33 [7]; [8]) was “resulted in phosphorylation of CD33”, the “recruitment of SHP-1” value (CD33 [7]; [8]) was “recruitment of SHP-1” and the “recruitment of SHP-1 to the CD33 complex” value (CD33 [7]; HL-60 and monocytes, 30 minutes, FIG. 16) was “resulted in recruitment of SHP-1”. For the same substance, the “time to phosphorylation of CD33 and recruitment of SHP-1” value (CD33 [7]; HL-60 cells, 3 μg/ml soluble SGN-33, FIG. 17) was no more than 5 min and the “strength of the phosphorylation response (signal on western blot)” value (CD33 [7]; primary monocytes compared to HL-60 or primary macrophages, opposite for SHP-1 signal, FIG. 15) was “appeared to be stronger in primary monocytes”.
